The record followed here is patent US6156762A, “Indolomorphinan derivative and agent for curing and preventing cerebral disorder” (Toray Industries, Inc., priority 1997, dated 2000).

The test system of one assay is cultured nerve cells. The assay is described as follows: Action of protecting cultured nerve cells from glutamic acid toxicity (LDH leakage). The format is cell-based, Wistar rat. As to conditions: rat fetal cerebral cortex cells, 10 mM glutamic acid, 24 hours, read-out: ED50 (the source's name). From the text: It is known that when the blood flow to the brain is temporarily clogged due to cerebral ischemia, hypoxia, or an trauma, delayed cerebral neuronal death is induced [Document: Brain Research, Vol. 239, 57 (1982)]. A possible cause of such damage of the cerebral nerve cells is excitatory toxicity due to an excitatory neutotransmitter such as glutamic acid or the like, which is excessively released with ischemia [Document: Trends in Neuroscience, vol. 10, 299 (1987)]. […] This is a problem to be solved by the invention. This action was evaluated by using the in vitro evaluation system which will be described below.
A fetus was taken from the abdomen of a Wistar female rat on the 18 to 19th day of pregnancy under aseptic conditions, and the head of the fetus was opened to extract the brain. The brain was placed in an ice-cooled L-15 medium, and the cerebral cortex was separated under a microscope. The cerebral cortexes of about 30 rats were cut into pieces, and then suspended in 10 ml of a 0.25% trypsin solution and 0.2 ml of a 0.01% DNase solution, followed by culture at 37° C. for 30 minutes. Then, 2 ml of serum was added to the solution, and immediately the resultant mixture was centrifuged at 120 rpm for 2 minutes to separate the precipitates. To the precipitates was added 7 ml of a DF medium (a medium obtained by adding 20 nM of transferrin, 5 μg/ml of insulin, 20 nM of progesterone,60 nM of selenite, 50 U/ml of penicillin, and 50 U/ml of streptomycin to a mixture equivalent amounts of Dulbecco modified Eagle medium and F-12 medium), followed by 20 pipetting operations using a 10-ml plastic pipette to obtain a cell suspension. The cell suspension was filtered with nylon mesh (pore diameter 43 μm) to fractionate isolated cells. The thus-obtained isolated cells were diluted with a DF medium to a concentration of 6.0×10^5 cells/ml, and 500 μl of the diluted cells was inoculated in each of the 48 wells of a 48-well culture plate precoated with polylysine, followed by culture at 37° C. for 1 day in the presence of 5% of CO2. On the 2nd day, the medium was changed to a new DF medium, and 10 μl of a solution of 0.5M glutamic acid in distilled water was added to each of the wells (the final glutamic acid concentration was 10 mM), followed by further culture at 37° C. for 24 hours in the presence 5% of CO2. A test compound was dissolved in distilled water, 10% or 100% DMSO or 10% methanol, and 5 μl of the solution was added to each of the wells immediately before glutamic acid was added. As an index of nerve cell damage, the enzyme activity of lactic acid dehydrogenase (LDH) leaking from the damaged cells into the medium was measured. For each of the test compounds, the LDH leakage was measured at each of concentrations to determine a dose-response curve by the modified Cochran-Armitige method. The 50% effective dose (ED50) of each of the test compounds we determined from the curve.

Assay [1] concerns middle cerebral artery ischemia model of rat. Put plainly: Infarction inhibiting action in middle cerebral artery ischemia (MCAo-recirculation) model of rat. It is filed as in vivo. As to conditions: ip, 24 h, 3 mg/kg i.p. 10 minutes before occlusion and 1 hour after recirculation, infarction volume one day after, vs control group, read-out: Rate of inhibition of infarction. From the text: It is also known that, in this way, in the acute stage of cerebral infarction, the lesion proceeds to the peripheral tissue from the core of infarction, and death of the nerve cells is extended with the passage of several days. This possible not only extends and creates grave aftereffects, and causes loss of motor and mental function, but also finally critically influences on the life. As an in vivo experimental model of cerebral infarction which is capable of precisely evaluating the clinical effect of a medicine in conformity with clinical conditions of the disease of a patient of cerebral infarction, the middle cerebral artery occlusion (MCAo)-recirculation model comprising an embolus with a yarn using Wister rates may be used [Document: Japan Journal of Stroke, vol. 8, 1 (1986)]. […] This action was evaluated by applying the MCAo model by the method which will be described below.
In rats of 10 weeks old, after etherization, a median incision of the cervical region was made up to the right carotid artery bifurcation under 1.0% halothane anesthetization with care to preserve the vagus nerves. The common carotid artery and the external carotid artery were separated from the periphery connective tissue with the right carotid artery bifurcation as the center, and each of the arteries was ligated by a 6-0 silk yarn (Eto yarn). Further, a yarn was wound on the internal carotid artery origin in preparation for ligation and fixing after insertion of the embolus. Next, the common carotid artery was incised, and the embolus was inserted from the common carotid artery to the internal carotid artery by about 15 to 16 mm, and ligated and fixed to the internal carotid artery by the silk yarn at the end thereof near the nylon yarn. In this operation, the end of the embolus was inserted into the anterior cerebral artery by about 1 to 2 mm beyond the middle cerebral artery bifurcation, and the inlet of the middle cerebral artery was occluded by the body (resin part) of the embolus for 1 hours. In recirculation, the embolus with a yarn was removed to recirculate the blood flow to the middle cerebral artery. 3 mg/kg of each of test compounds was intraperitoneally administered 10 minutes before occlusion and 1 hour after recirculation of the blood flow. One day after occlusion and recirculation, the whole body was perfused with physiologic saline through the heart, and the brain was extracted. The extracted brain was cooled with ice and water for 5 minutes, and cut at intervals of 2.0 mm to form 7 sections of the cerebral coronal surface. Each of the sections was stained with TTC (Triphenyltetrazolium Chloride), and fixed by a 5% neutral buffer formalin solution. In each of the sections, the infarction area in the right cerebral hemisphere was measured by an image analyzer (Olympus), and the infarction was evaluated by volume (mm^3). The infarction volume was compared with the infarction volume of a control group to calculate the rate of inhibition of infarction.

Turning to `Oc1ccc2c3c1O[C@H]1c4[nH]c5c(cc(Br)c6ccccc65)c4C[C@@]4(O)[C@@H](C2)N(CC2CC2)CC[C@]314` [Compound 9, 17-cyclopropylmethyl-3,14β-dihydroxy-6,7-dehydro-4,5α-epoxy-6,7,2',3'-(5'-bromo-6',7'-benzoindolo)morphinan], in the assay on cultured nerve cells, the EC50 was 110 nM. Besides, the inhibition in vivo at 3 mg/kg in assay [1] amounted to 9%.

In the case of `Cn1c2c(c3cc4c5c(cccc5c31)-c1ccccc1-4)C[C@@]1(O)[C@H]3Cc4ccc(O)c5c4[C@@]1(CCN3CC1CC1)[C@H]2O5` [Compound 77, 17-cyclopropylmethyl-3,14β-dihydroxy-6,7-dehydro-4,5α-epoxy-6,7,2',3'-(1'-methyl-5',6"-benzeno-6',7'-benzoindolo)morphinan], the EC50 in the assay on cultured nerve cells was 160 nM. Besides, the inhibition in vivo at 3 mg/kg in assay [1] was 84%.

On to `Oc1ccc2c3c1O[C@H]1c4[nH]c5c(cc6c7c(cccc75)CC6)c4C[C@@]4(O)[C@@H](C2)N(CC2CC2)CC[C@]314` [Compound 3, 17-cyclopropylmethyl-3,14β-dihydroxy-6,7-dehydro-4,5α-epoxy-6,7,2',3'-(5',6"-ethano-6',7'-benzoindolo)morphinan], for which, in the assay with cultured nerve cells, the EC50 came to 53 nM. Moreover, the inhibition in vivo at 3 mg/kg in assay [1] was determined as 54%.

Regarding `Oc1ccc2c3c1O[C@H]1c4[nH]c5c(ccc6cccc(Cl)c65)c4C[C@@]4(O)[C@@H](C2)N(CC2CC2)CC[C@]314` [Compound 12, 17-cyclopropylmethyl-3,14β-dihydroxy-6,7-dehydro-4,5α-epoxy-6,7,2',3'-(3"-chloro-6',7'-benzoindolo)morphinan], the EC50 with cultured nerve cells was 35 nM. The inhibition in vivo at 3 mg/kg in assay [1] is 67%.

As for `Oc1ccc2c3c1O[C@H]1c4[nH]c5ccc6ccccc6c5c4C[C@@]4(O)[C@@H](C2)N(CC2CC2)CC[C@]314` [Compound 8, 17-cyclopropylmethyl-3,14β-dihydroxy-6,7-dehydro-4,5α-epoxy-6,7,2',3'-(4',5'-benzoindolo)morphinan], the EC50 with cultured nerve cells came out at 200 nM. For the same molecule, the inhibition in vivo at 3 mg/kg in assay [1] was 49%.

For the molecule `Oc1ccc2c3c1O[C@H]1c4[nH]c5c(ccc6ccccc65)c4C[C@@]4(O)[C@@H](C2)N(CC2CC2)CC[C@]314` [Compound 2, 17-cyclopropylmethyl-3,14β-dihydroxy-6,7-dehydro-4,5α-epoxy-6,7,2',3'-(6',7'-benzoindolo)morphinan], the EC50 in the assay with cultured nerve cells turned out to be 33 nM. Further, the inhibition in vivo at 3 mg/kg in assay [1] was 72%.

Consider `Oc1ccc2c3c1O[C@H]1c4c(c5ccc6ccccc6c5n4CCc4ccccc4)C[C@@]4(O)[C@@H](C2)N(CC2CC2)CC[C@]314` [Compound 80, 17-cyclopropylmethyl-3,14β-dihydroxy-6,7-dehydro-4,5α-epoxy-6,7,2',3'-[1'-(2-phenylethyl)-6',7'-benzoindolo]morphinan], for which the EC50 in the assay on cultured nerve cells came out at 37 nM. For the same molecule, the inhibition in vivo at 3 mg/kg in assay [1] came out at 29%.

For `NCCCn1c2c(c3ccc4ccccc4c31)C[C@@]1(O)[C@H]3Cc4ccc(O)c5c4[C@@]1(CCN3CC1CC1)[C@H]2O5` [Compound 25, 17-cyclopropylmethyl-3,14β-dihydroxy-6,7-dehydro-4,5α-epoxy-6,7,2',3'-[1'-(3-aminopropyl)-6',7'-benzoindolo]morphinan], in the assay with cultured nerve cells, the EC50 worked out at 300 nM. In addition, the inhibition in vivo at 3 mg/kg in assay [1] was 15%.

As to `Oc1ccc2c3c1O[C@H]1c4c(c5ccc6ccccc6c5n4CCCNC(=S)NCc4ccccc4)C[C@@]4(O)[C@@H](C2)N(CC2CC2)CC[C@]314` [Compound 67, 17-cyclopropylmethyl-3,14β-dihydroxy-6,7-dehydro-4,5α-epoxy-6,7,2',3'-[1'-[3-(N'-benzylthioureido)propyl]-6',7'-benzoindolo]morphinan], the EC50 with cultured nerve cells is 27 nM. For the same molecule, the inhibition in vivo at 3 mg/kg in assay [1] amounted to 39%.

`O[C@@]12Cc3c([nH]c4c3ccc3ccccc34)[C@@H]3Oc4cccc5c4[C@@]31CCN(CC1CC1)[C@@H]2C5` [Compound 18, 17-cyclopropylmethyl-14β-hydroxy-6,7-dehydro-4,5α-epoxy-6,7,2',3'-(6',7'-benzoindolo)morphinan]: the EC50 in the assay on cultured nerve cells was 900 nM. Besides, the inhibition in vivo at 3 mg/kg in assay [1] turned out to be 23%.

On to `Oc1ccc2c3c1O[C@H]1c4c(c5ccc6ccccc6c5n4Cc4ccc(F)cc4)C[C@@]4(O)[C@@H](C2)N(CC2CC2)CC[C@]314` [Compound 70], for which the EC50 in the assay with cultured nerve cells was found to be 15 nM. Moreover, the inhibition in vivo at 3 mg/kg in assay [1] amounted to 34%.

As for `OCCn1c2c(c3ccc4ccccc4c31)C[C@@]1(O)[C@H]3Cc4ccc(O)c5c4[C@@]1(CCN3CC1CC1)[C@H]2O5` [Compound 81, 17-cyclopropylmethyl-3,14β-dihydroxy-6,7-dehydro-4,5α-epoxy-6,7,2',3'-[1'-(2-hydroxyethyl)-6',7'-benzoindolo]morphinan], the EC50 with cultured nerve cells came out at 67 nM. The inhibition in vivo at 3 mg/kg in assay [1] is 11%.

Consider `Oc1ccc2c3c1O[C@H]1c4[nH]c5cc(C6CCCCC6)ccc5c4C[C@@]4(O)[C@@H](C2)N(CC2CC2)CC[C@]314` [Compound 5, 17-cyclopropylmethyl-3,14β-dihydroxy-6,7-dehydro-4,5α-epoxy-6,7,2',3'-(6'-cyclohexylindolo)morphinan], for which the EC50 in the assay on cultured nerve cells was determined as 120 nM. Further, in assay [1], the inhibition in vivo at 3 mg/kg was 31%.
